Data from US10471043B2, “Compounds and methods of treating bacterial infections” (ULTUPHARMA AB, priority 2015, dated 2019).
In brackets after ≈: the same amount, converted by molar mass.

Columns and labels:
Type in all cases: cell-based
A. Pittii/nosocomialis = experiment: MIC panel of Gram-negative bacteria (Table 7); conditions: Acinetobacter pittii; EN0180 A. Pittii/nosocomialis G−
Citrobacter sp. = experiment: MIC panel of Gram-negative bacteria (Table 7); conditions: EN0465 Citrobacter sp. G− PKL 3710
S. aureus = experiment: Antimicrobial Susceptibility Test by Broth Microdilution, M07-A9 CLSI; conditions: Staphylococcus aureus
K. oxytoca = experiment: MIC panel of Gram-negative bacteria (Table 7); conditions: Klebsiella oxytoca; EN0392 K. oxytoca G−

CCCCCCCCCC1CC(O)=C(C(=O)CCC)C(=O)O1 (stereo not shown) [Ex. 1, 3-Butyryl-6-nonyl-4-hydroxy-5,6-dihydro-2H-pyran-2-one]
MIC (A. Pittii/nosocomialis): > 64 µg/mL | MIC (Citrobacter sp.): > 64 µg/mL | MIC (S. aureus; ATCC29213, S. aureus ATCC29213, QC strain, Table 5): 4 µg/mL (≈ 12.9 µM) | MIC (S. aureus; ATCC29213, S. aureus ATCC 29213, QC strain, Table 6): 4 µg/mL (≈ 12.9 µM) | MIC (S. aureus; MRSA, S. aureus PICI, Table 6): 4 µg/mL (≈ 12.9 µM) | MIC (S. aureus; MSSA, S. aureus MO 17, MSSA, Table 6): 2 µg/mL (≈ 6.44 µM) | MIC (S. aureus; S. aureus 6 Holland, Macrolide-resistant (M)): 1 µg/mL (≈ 3.22 µM) | MIC (S. aureus; S. aureus 56 Japan, Macrolide-resistant (MLSi)): 4 µg/mL (≈ 12.9 µM) | MIC (S. aureus; S. aureus 853E, Macrolide-sensitive): 2 µg/mL (≈ 6.44 µM) | MIC (S. aureus; S. aureus 4216, Tetracycline-resistant): 2 µg/mL (≈ 6.44 µM) | MIC (S. aureus; S. aureus 4384 (SSI), Methicillin-resistant): 2 µg/mL (≈ 6.44 µM) | MIC (S. aureus; S. aureus FR 131, Quinolone-resistant): 2 µg/mL (≈ 6.44 µM) | MIC (S. aureus; S. aureus MO17, Methicillin-sensitive, Table 5): 2 µg/mL (≈ 6.44 µM) | MIC (S. aureus; S. aureus PICI, Methicillin-resistant, Table 5): 4 µg/mL (≈ 12.9 µM) | MIC (S. aureus; S. aureus PK2, Macrolide-resistant (MLSc)): 2 µg/mL (≈ 6.44 µM) | MIC (K. oxytoca): > 64 µg/mL
